In this assay the test system is NCI/ADR-RES complex spheroid viability. Briefly: Anticancer human tumor NCI/ADR-RES cell line growth inhibition.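 On all read-outs here: spheroids exposed to compounds for 7 days.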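 On viability, T/C: 100% = DMSO vehicle treated spheroids.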 Particulars: for viability, T/C: stronger effect = lower value; for pIC50: curve of compound. From the text:
Multicellular complex tumor spheroid response to LSD1 Inhibitor Iadademstat in combination with a variety of drugs and investigational agents in selected tumor cell lines
The current study was undertaken to assess response to LSD1 inhibitors in combination with standard-of-care drugs and investigational agents in solid tumor complex spheroid models as well as in the K-562 leukemia. Complex spheroids include a stromal component modeled by human endothelial cells (HUVEC) and fibroblasts modeled by human mesenchymal stem cells (MSCs). The concentration ranges selected for each drug and investigational agent were based upon clinically achievable concentrations if the clinical Cmax of the agent was known.
Compounds. The drugs and investigational agents used in this study are listed on Table 1. All of the agents used, including staurosporine (NSC755774) and gemcitabine (NSC613327), were obtained from the Developmental Therapeutics Program, NCI. FDA-approved anticancer drugs are available from the NCI at http://dtp.nci.nih.gov/branches/dscb/oncology_drugset_explanation.html. Drugs and investigational agents were >95% pure by proton nuclear magnetic resonance (NMR) and liquid chromatography/mass spectrometry (LC/MS). Stock solutions were prepared at 400x in DMSO, stored at -70 degrees C, and diluted in fresh medium prior to their use. The final concentration of DMSO in cell culture wells never exceeded 0.25% (v/v). The FDA-approved anticancer drug set is available from the Developmental Therapeutics Program at https://dtp.cancer.gov/organization/dscb/obtaining/available_plates.htm. All drugs and investigational agents were tested over a range starting from a high concentration at or near the clinical Cmax and decreasing in half-log increments. If the clinical Cmax for an agent had not been determined, the highest concentration tested was 10 microM.
Cell Lines. The patient-derived cancer cell (PDC) lines: 292921-168-R-J2-PDC, K24384-001-R-PDC, and 521955-158-R2-J5-PDC pancreatic carcinomas, 556581-035-R-J1 ovarian carcinoma, 324938-238-R-J1-PDC, 855422-203-R-J1-PDC and 883617-216-R-J1-PDC urothelial bladder carcinomas, 743489-274-T-PDC renal cell carcinoma, 138582-R-J1 Merkel cell tumor, K60290-347-R-J1 and K57222-313-R-J1-PDC glioblastomas, 653999-131-R-J2-PDC, LG0703-F948-PDC, and 349418-098-R-PDC non-small cell lung carcinomas, 885512-296-R-J2-PDC, 171881-019-R-J1-PDC breast carcinomas and 186277-243-T-J2-PDC and 233499-124-R-J2-PDC colon carcinomas were obtained from the NCI Patient-Derived Models Repository (PDMR, https://pdmr.cancer.gov). The established cell lines NCI/ADR-RES (RRID:CVCL_14520 and OVCAR-5 (RRID:CVCL_1628) ovarian carcinomas, 786-O (RRID:CVCL_1051) and A498 (RRID:CVCL_A498) renal cell carcinoma, NCI-H211 (ATCC, cat. CRL-5824; RRID:CVCL_1529), NCI-H196 (ATCC, cat. CRL-5823, RRID:CVCL_1509), SW 1271 (ATCC, cat. CRL-2177, RRID:CVCL_1716) and NCI-H1876 (ATCC, cat. CRL-5902, RRID:CVCL_1503) small cell lung carcinomas, MDA-MB-231 (RRID:CVCL_0062) and MDA-MB-468 (RRID:CVCL_0419)breast carcinomas (10-12). Pooled donor human umbilical vein endothelial cells (HUVEC, Lonza, cat. CC-2519) and human mesenchymal stem cells (hMSC, Lonza, cat. PT-2501) were purchased from Lonza (Walkersville, MD).
Cell Culture. All cells were maintained in an incubator at 37 degrees C and 5% CO2 with 95% humidity. The PDC lines were cultured according to standard operating procedures established by the NCI PDMR (https://pdmr.cancer.gov). Briefly all PDCs were thawed and cultured in Matrigel-coated flasks prepared with a working solution of 1X Ham's F-12 nutrient mix, without supplementation (Invitrogen, Waltham, MA, cat. 11765054), 100 U/mL penicillin-streptomycin (Invitrogen, cat. 15140122), and 2.5% Matrigel (Corning Inc., Corning, NY, cat. 354248) for the first three passages. […]

pIC50: −log10 of the molar value. Values joined by “and” are separate entries in the source; they are usually repeats but may differ in a detail not shown here. Equal entries are not always repeated.

On to `Cn1ncnc1C1c2n[nH]c(=O)c3cc(F)cc(c23)NC1c1ccc(F)cc1` (stereo not drawn), for which the pIC50 is below 7.00. Moreover, the viability, T/C (compound 0.000316 µM) was 103% and 101%. The viability, T/C (compound 0.001 µM) is 109% and 102%. Further, the viability, T/C (compound 0.00316 µM) was 106% and 103%. Further, the viability, T/C (compound 0.01 µM) is 99.4% and 99.5%. In addition, where the note is “compound 0.0316 µM”, the viability, T/C is 96.5% and 100%. The viability, T/C (compound 0.1 µM) was 105% and 101%.

`NS(=O)(=O)OCC1CC(n2ccc3c(NC4CCc5ccccc54)ncnc32)CC1O` (stereo not drawn): the negative-log IC50 (pIC50) was 6.22 and 6.10. In addition, the viability, T/C (compound 0.00949 µM) is 94% and 94.6%. The viability, T/C (compound 0.03 µM) was 91% and 98.8%. The viability, T/C (compound 0.0949 µM) is 87.3% and 86.9%. Further, the viability, T/C (compound 0.3 µM) is 72.3% and 74.8%. Moreover, the viability, T/C (compound 0.949 µM) was 35.7% and 45.3%. Besides, for the setting “compound 3 µM”, the viability, T/C was 14.5% and 17.2%.

Consider `Nc1ccccc1NC(=O)c1ccc(CNC(=O)OCc2cccnc2)cc1`, for which the negative logarithm of the IC50 (pIC50) is 5.83 and 6.05. Further, the viability, T/C (compound 0.00949 µM) was 105% and 99.8%. For the same molecule, for the setting “compound 0.03 µM”, the viability, T/C was 98.3% and 100%. In addition, the viability, T/C (compound 0.0949 µM) was 88.4% and 94.4%. The viability, T/C (compound 0.3 µM) was 81.6% and 75.8%. For the same molecule, the viability, T/C (compound 0.949 µM) is 58.7% and 49.3%. Besides, where the note is “compound 3 µM”, the viability, T/C was 33.9% and 26.6%.

As to `Nc1ccn(C2OC(CO)C(O)C2(F)F)c(=O)n1` (stereo not drawn), the negative logarithm of the IC50 (pIC50) is above 9.02. The viability, T/C (compound 0.000949 µM) is 8.59% and 3.05%. For the same molecule, the viability, T/C (compound 0.003 µM) was 3.76% and 3.9%. Further, the viability, T/C (compound 0.00949 µM) is 3.95% and 4.1%. The viability, T/C (compound 0.03 µM) was 3.55% and 2.02%. The viability, T/C (compound 0.0949 µM) was 3.71% and 1.86%. Moreover, under “compound 0.3 µM”, the viability, T/C was 1.91% and 1.26%.

Regarding `Nc1ncn(C2CC(O)C(CO)O2)c(=O)n1` (stereo not drawn), the pIC50 is 7.15 and 7.36. For the same molecule, the viability, T/C (compound 0.00316 µM) was 95.5% and 91.8%. Where the note is “compound 0.01 µM”, the viability, T/C was 89.1% and 76.3%. For the same molecule, the viability, T/C (compound 0.0316 µM) was 71% and 57.2%. The viability, T/C (compound 0.1 µM) is 40.1% and 33.6%. Also, where the note is “compound 0.316 µM”, the viability, T/C was 27.4% and 18.6%. Besides, for the setting “compound 1 µM”, the viability, T/C is 19.8% and 12.7%.

Take `Nc1ncn(C2CC(O)C(CO)S2)c(=O)n1` (stereo not drawn): the pIC50 was 7.85 and 8.17. Moreover, the viability, T/C (compound 0.000949 µM) was 86.4% and 84.4%. Moreover, where the note is “compound 0.003 µM”, the viability, T/C is 75.9% and 67.9%. For the same molecule, the viability, T/C (compound 0.00949 µM) was 53.8% and 40.1%. Moreover, the viability, T/C (compound 0.03 µM) was 38.7% and 27.5%. Also, the viability, T/C (compound 0.0949 µM) is 21.2% and 11.8%. Besides, the viability, T/C (compound 0.3 µM) is 6.02% and 3.16%.

On to `O=C(C=Cc1cccc(S(=O)(=O)Nc2ccccc2)c1)NO`, for which the negative logarithm of the IC50 (pIC50) was 7.16 and 7.14. Further, where the note is “compound 0.00949 µM”, the viability, T/C is 95.3% and 96%. Besides, the viability, T/C (compound 0.03 µM) was 81.6% and 75.3%. The viability, T/C (compound 0.0949 µM) is 36.6% and 42%. In addition, the viability, T/C (compound 0.3 µM) is 16.7% and 17.2%. The viability, T/C (compound 0.949 µM) was 7.77% and 6.17%. The viability, T/C (compound 3 µM) is 2.68% and 1.54%.

Regarding `O=C(C=Cn1cnc(-c2cc(C(F)(F)F)cc(C(F)(F)F)c2)n1)NNc1cnccn1`, the pIC50 is 8.24 and 8.35. In addition, under “compound 0.00316 µM”, the viability, T/C is 69.8% and 61.6%. The viability, T/C (compound 0.01 µM) is 28.8% and 22.1%. Also, the viability, T/C (compound 0.0316 µM) was 20.3% and 16.5%. Moreover, under “compound 0.1 µM”, the viability, T/C was 10.6% and 5.99%. Moreover, where the note is “compound 0.316 µM”, the viability, T/C is 6.07% and 1.5%. The viability, T/C (compound 1 µM) was 2.27% and 0.91%.

Turning to `O=C(c1cc(Cc2n[nH]c(=O)c3ccccc23)ccc1F)N1CCN(C(=O)C2CC2)CC1`, the negative-log IC50 (pIC50) was below 5.00. For the same molecule, the viability, T/C (compound 0.0316 µM) was 102%. In addition, the viability, T/C (compound 0.1 µM) is 102% and 99.6%. The viability, T/C (compound 0.316 µM) is 104% and 102%. The viability, T/C (compound 1 µM) was 105% and 97.3%. The viability, T/C (compound 3.16 µM) is 90.7% and 95.4%. Further, the viability, T/C (compound 10 µM) was 89.6% and 85%.

The record behind these values is PubChem BioAssay AID1918955 (Molecular Pharmacology Branch, DTP, NCI, 2023).
